Source: US20190364896A1, “SYNERGISTIC WEED CONTROL FROM APPLICATIONS OF PYRIDINE CARBOXYLIC ACID HERBICIDES AND ALS INHIBITORS” (Dow AgroSciences LLC, priority 2014, published 2019)
Like-named read-outs stand apart in the source and are kept apart here.

Key:
Assay in all cases: Postemergence herbicidal activity, greenhouse trial (visual injury 0-100%)
Type in all cases: in vivo
[1] = test system: kochia (Kochia scoparia, KCHSC); conditions: Bassia scoparia, post-emergence, read-out: % visual injury Obs
Outline: (§1)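 Greenhouse postemergence test, ~23 °C day, 22 °C night. Two-way combinations were sprayed at 187 L/ha in 1.5% v/v crop oil concentrate, and percent injury was scored visually after 20-22 d.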

[2] = test system: thistle (Cirsium arvense, CIRAR)
Outline: as §1

[3] = test system: wild buckwheat (Polygonum convolvulus, POLCO); conditions: Fallopia convolvulus, post-emergence, read-out: % visual injury Obs
Outline: as §1

[4] = test system: barnyardgrass (Echinochloa crus-galli, ECHCG); conditions: Echinochloa crus-galli, post-emergence, read-out: % visual injury Obs
Outline: as §1

[5] = test system: common lambsquarters (Chenopodium album L., CHEAL); conditions: Chenopodium album, post-emergence, read-out: % visual injury Obs
Outline: as §1

[6] = test system: ivyleaf morning-glory (Ipomoea hederacea, IPOHE); conditions: Ipomoea hederacea, post-emergence, read-out: % visual injury Obs
Outline: as §1

[7] = test system: wild pansy (Viola tricolor, VIOTR); conditions: Viola tricolor, post-emergence, read-out: % visual injury Obs
Outline: as §1

Work on Nc1c(F)c(-c2ccc3cc[nH]c3c2F)nc(C(=O)O)c1Cl [Compound 1] yielded a pest or weed control at 5 g/ha ([1]; 5 g ae/ha) of 65%, a pest or weed control at 10 g/ha ([1]; 10 g ae/ha) of 60% and a pest or weed control at 5 g/ha ([1]; KCHSC, Compound 1 5 g ae/ha) of 60%. The pest or weed control at 10 g/ha ([1]; KCHSC, Compound 1 10 g ae/ha) was 60%, the “% visual injury Obs” value ([2]; CIRAR, Compound 1 5 g ae/ha) was 10% and the pest or weed control at 5 g/ha ([2]; Cirsium arvense, post-emergence, 5 g ae/ha, read-out: % visual injury Obs) was 10%. It also gave a pest or weed control at 5 g/ha ([3]; 5 g ae/ha) of 70%, a pest or weed control at 5 g/ha ([3]; POLCO, Compound 1 5 g ae/ha) of 65% and a pest or weed control at 10 g/ha ([4]; 10 g ae/ha) of 60%. It also gave a pest or weed control at 5 g/ha ([4]; ECHCG, Compound 1 5 g ae/ha) of 50%, a pest or weed control at 5 g/ha ([5]; 5 g ae/ha) of 80% and a pest or weed control at 10 g/ha ([5]; 10 g ae/ha) of 100%. The pest or weed control at 5 g/ha ([5]; CHEAL, Compound 1 5 g ae/ha) was 90%, the pest or weed control at 10 g/ha ([5]; CHEAL, Compound 1 10 g ae/ha) was 100% and the pest or weed control at 10 g/ha ([6]; 10 g ae/ha) was 10%. The pest or weed control at 10 g/ha ([6]; IPOHE, Compound 1 10 g ae/ha) was 10%, the pest or weed control at 10 g/ha ([7]; 10 g ae/ha) was 10% and the pest or weed control at 10 g/ha ([7]; VIOTR, Compound 1 10 g ae/ha) was 10%.

In the case of CCCOc1nn(C(=O)NS(=O)(=O)c2ccccc2C(=O)OC)c(=O)n1C [Propoxycarbazone, propoxycarbazone], the pest or weed control at […] ([1]; 7.5 g ai/ha) is reported as 30%, the pest or weed control at […] ([2]; Cirsium arvense, post-emergence, 7.5 g ai/ha, read-out: % visual injury Obs) is reported as 75% and the pest or weed control at […] ([3]; 7.5 g ai/ha) is reported as 10%. The pest or weed control at […] ([4]; 7.5 g ai/ha) was 95%, the pest or weed control at […] ([5]; 7.5 g ai/ha) was 30% and the pest or weed control at […] ([6]; 7.5 g ai/ha) was 95%. It also gave a pest or weed control at […] ([7]; 7.5 g ai/ha) of 20%.
